We go through eight compounds from patent US9365522B2, “Pyrazole amide derivative” (AMGEN INC., priority 2015, dated 2016).

This assay concerns the target T1, ligand binding domain of human ROR gamma (Homo sapiens, UniProt P51449).
T1 construct: NM_001001523; expressed in transfected cells; host or cells: HEK293T
T1 sequence (P51449 247-497 isoform P51449-2): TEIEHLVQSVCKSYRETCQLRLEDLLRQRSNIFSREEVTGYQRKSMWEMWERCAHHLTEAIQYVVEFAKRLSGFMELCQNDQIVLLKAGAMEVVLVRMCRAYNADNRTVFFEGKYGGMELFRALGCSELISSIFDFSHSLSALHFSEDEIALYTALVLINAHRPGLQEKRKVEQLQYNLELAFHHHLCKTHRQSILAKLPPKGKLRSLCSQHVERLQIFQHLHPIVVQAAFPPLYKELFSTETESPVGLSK
As to the kind of experiment: ROR gamma reporter gene assay (GAL4-RORγ LBD luciferase, Dual-Glo). The format is cell-based. The conditions noted are these: HEK293T cells transfected with pM-ROR gamma, 8 concentrations 3.5 nM to 10.5 μM, 24 h incubation; read-out: result (pIC50, inhibition of RORγ transcriptional activity) (converted). The method in brief: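 Inhibition of RORγ-driven transcription was measured in HEK293T cells expressing a GAL4 fusion of the human RORγ LBD (aa 247-497), with renilla luciferase as internal control. Cells in 10% charcoal-stripped serum received compound (3.5 nM–10.5 μM) for 24 h.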
A general note: In a reporter assay the amount or activity of a reporter protein is the signal.
Regarding `CC(C)(C)C#CCN(CC(=O)c1c(Cl)cccc1C(F)(F)F)C(=O)c1cnn([C@H]2CC[C@](C)(C(=O)O)CC2)c1C(F)(F)F` [Example 217, trans-4-(4-((2-(2-chloro-6-(trifluoromethyl)phenyl)-2-oxoethyl)-(4,4-dimethylpent-2-ynyl)carbamoyl)-5-(trifluoromethyl)pyrazol-1-yl)-1-methylcyclohexane-1-carboxylic acid], the IC50 is 219000 pM.
Next, `CC(C)(C)C#CCN(CC(=O)c1c(Cl)cc(F)cc1Cl)C(=O)c1cnn([C@H]2CC[C@](C)(C(=O)O)CC2)c1C(F)(F)F` [Example 218, trans-4-(4-((2-(2,6-dichloro-4-fluorophenyl)-2-oxoethyl)-(4,4-dimethylpent-2-ynyl)carbamoyl)-5-(trifluoromethyl)pyrazol-1-yl)-1-methylcyclohexane-1-carboxylic acid]: 339000 pM; `CC1(C)[C@@H]2C[C@H](N(CC(=O)c3c(Cl)cc(Cl)cc3Cl)C(=O)c3cnn([C@H]4CC[C@](C)(C(=O)O)CC4)c3C(F)(F)F)C[C@@H]21` [Example 219, trans-4-(4-(((1R,3r,5S)-6,6-dimethyl-3-bicyclo[3.1.0]hexanyl)-(2-oxo-2-(2,4,6-trichlorophenyl)ethyl)carbamoyl)-5-(trifluoromethyl)pyrazol-1-yl)-1-methylcyclohexane-1-carboxylic acid]: 4900 pM; `CC1(C)CCC(CN(CC(=O)c2c(Cl)cc(F)cc2Cl)C(=O)c2cnn([C@H]3CC[C@](C)(C(=O)O)CC3)c2C(F)(F)F)CC1` [Example 220, trans-4-(4-((2-(2,6-dichloro-4-fluorophenyl)-2-oxoethyl)-((4,4-dimethylcyclohexyl)methyl)carbamoyl)-5-(trifluoromethyl)pyrazol-1-yl)-1-methylcyclohexane-1-carboxylic acid]: 105000 pM.
Next, `CC(C)(C)CN(CC(=O)c1c(Cl)cc(Cl)cc1Cl)C(=O)c1cnn([C@H]2CC[C@](C)(C(=O)O)CC2)c1C(F)(F)F` [Example 221, trans-4-(4-(2,2-dimethylpropyl-(2-oxo-2-(2,4,6-trichlorophenyl)ethyl)carbamoyl)-5-(trifluoromethyl)pyrazol-1-yl)-1-methylcyclohexane-1-carboxylic acid]: 2950 pM; `CC1(C)[C@@H]2C[C@H](N(CC(=O)c3c(Cl)cccc3C(F)(F)F)C(=O)c3cnn([C@H]4CC[C@](C)(C(=O)O)CC4)c3C(F)(F)F)C[C@@H]21` [Example 222, trans-4-(4-((2-(2-chloro-6-(trifluoromethyl)phenyl)-2-oxoethyl)-((1R,3r,5S)-6,6-dimethyl-3-bicyclo[3.1.0]hexanyl)carbamoyl)-5-(trifluoromethyl)pyrazol-1-yl)-1-methylcyclohexane-1-carboxylic acid]: 4170 pM.
To `CC1(C)CC[C@@H](N(CC(=O)c2c(Cl)cncc2Cl)C(=O)c2cnn([C@H]3CC[C@H](C(=O)O)CC3)c2C(F)(F)F)C1` [Example 223, trans-4-(4-((2-(3,5-dichloropyridin-4-yl)-2-oxoethyl)-((1R)-3,3-dimethylcyclopentyl)carbamoyl)-5-(trifluoromethyl)pyrazol-1-yl)cyclohexane-1-carboxylic acid] belongs 50100 pM.
For the compound `C[C@]1(C(=O)O)CC[C@H](n2ncc(C(=O)N(CC(=O)c3c(Cl)cc(F)cc3Cl)CC3(F)CCCC3)c2C(F)(F)F)CC1` [Example 224, trans-4-(4-((2-(2,6-dichloro-4-fluorophenyl)-2-oxoethyl)-((1-fluorocyclopentyl)methyl)carbamoyl)-5-(trifluoromethyl)pyrazol-1-yl)-1-methylcyclohexane-1-carboxylic acid], the IC50 is 2690 pM.
